Laboratory results as given in US20190112357A1, “PREVENTION OF PROTEIN DISULFIDE BOND REDUCTION” (MedImmune, LLC, priority 2016, published 2019).

What was measured:
Type in all cases: physicochemical
[1] = Antibody reduction potential assay (Vacuum/GX); details: EDTA 9.5, 19, 38 mM or Cystine 4 and 8 mM
Procedure: Bioreactor samples (1 mL) were obtained daily and centrifuged at 3000-4000 RPM and the supernatant was frozen immediately at −80° C. On the day prior to the assay, the samples were removed from −80° C. storage, thawed, and placed in a vacuum chamber at room temperature overnight to induce reduction of the monoclonal antibody without the interference of oxygen. After the vacuum hold, the samples were analyzed for protein fragmentation under non-reducing conditions using a BioAnalyzer system (Agilent Technologies) or a LABCHIP® GXII system (PerkinElmer) to detect antibody fragments resulting from the breakage of the antibody's interchain disulfide bonds. […]
Samples were stored frozen until analyzed. […] After being denatured and the free thiols being capped by NEM, the samples were analyzed using a Perkin Elmer Labchip® GXII (Perkin Elmer, Waltham, Mass.) to perform size fractionation and quantification. Using the Labchip® GXII, the protein and fragments were detected by laser-induced fluorescence and translated into gel-like images (bands) and electropherograms (peaks).
Reduction potential, i.e. the potential of the molecule to be reduced under anaerobic condition, was measured by subjecting samples to vacuum analysis as described above followed addition of non-reducing sample buffer. […]

[2] = Antibody aggregation analysis (HP-SEC); details: EDTA 9.5, 19, 38 mM or Cystine 4 and 8 mM
Procedure: The percent of antibody aggregates was determined using standard size exclusion chromatography (HP-SEC) methods. An Agilent 1200 series system was used with a Tosoh Bioscience TSKgel G3000SW XL column (Tosoh Bioscience LLC, King of Prussia, Pa.) (7.8 mm×300 mm) at 1 mL/min flow rate using a mobile phase buffer of 0.1 M sodium phosphate, 0.1 M sodium sulfate, pH 6.8. The absorbance chromatography at 280 nm was used to quantify the results.

[3] = Non-reduced GX (NR-GX) analysis of HCCF and purification products; details: 2 weeks at 2° C.-8° C., bags without headspace
Procedure: Samples were stored frozen until analyzed. Once thawed, 400-600 μL of each sample was transferred to culture tubes and mixed in non-reducing sample buffer containing N-Ethylmaleimide (NEM). After being denatured and the free thiols being capped by NEM, the samples were analyzed using a Perkin Elmer Labchip® GXII (Perkin Elmer, Waltham, Mass.) to perform size fractionation and quantification. Using the Labchip® GXII, the protein and fragments were detected by laser-induced fluorescence and translated into gel-like images (bands) and electropherograms (peaks).
The high levels of impurities were first detected in the capture product and were carried through the subsequent steps in the process.

[4] = Free thiol quantitation in HCCF by disulfide mapping mass spectrometry; details: 2 mM cystine, 2 week hold, versus starting material
Procedure: The amount of free thiol in harvested cell culture fluid was determined by matching predicted masses of disulfide-linked peptides to observed masses from non-reducing Lys-C peptide mapping. Briefly, the sample was denatured and diluted prior to digestion with a serine protease. Following protease digestion, half of each reaction mixture was reduced by the addition of DTT. The digests were separated by RP-HPLC using a C18 column and analyzed using a UV-detector and an on-line mass spectrometer. Disulfide-bond linked peptides are only present in non-reducing runs and will disappear under reducing conditions.

With `N[C@@H](CSSC[C@H](N)C(=O)O)C(=O)O` [cystine, L-cystine] the “reduction potential at the time of harvest of sheared mAb E material” value [1] was “no reduction potential”, the “aggregation of sheared mAb E material after 8 days at 2-8° C.” value [2] was “limited the extent of mAb aggregation” and the “reduction of mAb B in HCCF by the end of the hold (NR-GX)” value ([3]; 2 mM cystine) was “reduction had set in”. For the same molecule, the “reduction of mAb B in HCCF by the end of the hold (NR-GX)” value ([3]; 4 mM cystine) was “no signs of reduction” and the “inter-chain free thiol in HCCF by the end of the hold” value [4] was “higher level of inter-chain free thiol”.
